Common to all, as to assay type: cell-based
The target of data set [1] is T1, Aryl hydrocarbon receptor (Homo sapiens, UniProt P35869).
T1 sequence (P35869 whole entry): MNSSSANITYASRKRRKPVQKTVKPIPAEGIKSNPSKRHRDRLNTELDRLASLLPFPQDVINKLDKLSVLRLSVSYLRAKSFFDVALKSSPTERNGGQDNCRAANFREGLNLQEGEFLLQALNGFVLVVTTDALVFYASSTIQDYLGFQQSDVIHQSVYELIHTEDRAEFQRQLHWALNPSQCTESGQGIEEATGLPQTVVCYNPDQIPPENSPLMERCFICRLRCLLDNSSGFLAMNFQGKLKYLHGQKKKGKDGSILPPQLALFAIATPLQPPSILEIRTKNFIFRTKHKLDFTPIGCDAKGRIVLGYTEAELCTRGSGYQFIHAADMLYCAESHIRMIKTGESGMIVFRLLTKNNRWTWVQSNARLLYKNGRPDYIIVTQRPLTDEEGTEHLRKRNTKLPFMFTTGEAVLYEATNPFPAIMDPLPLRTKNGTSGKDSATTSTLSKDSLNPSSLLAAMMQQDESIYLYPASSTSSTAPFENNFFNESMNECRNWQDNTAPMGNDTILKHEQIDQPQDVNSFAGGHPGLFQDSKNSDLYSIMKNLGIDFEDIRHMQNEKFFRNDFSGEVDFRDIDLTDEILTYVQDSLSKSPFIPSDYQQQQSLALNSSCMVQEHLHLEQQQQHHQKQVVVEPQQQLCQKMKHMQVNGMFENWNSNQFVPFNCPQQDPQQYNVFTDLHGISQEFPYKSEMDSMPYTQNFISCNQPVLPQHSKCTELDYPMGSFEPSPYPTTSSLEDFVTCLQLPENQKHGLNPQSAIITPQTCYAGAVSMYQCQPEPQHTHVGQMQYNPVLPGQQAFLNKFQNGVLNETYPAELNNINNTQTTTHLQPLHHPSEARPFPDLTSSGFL
Kind of data set: Induction of AhR degradation in human MCF7 cells assessed as AhR/lamin ratio level at 10 uM after 6 hrs by Western blot analysis (reference value: 100%). The settings on record: mcf7, 6 h. On the technique in general: Immunoblotting shows a protein as a band on a membrane.

Data set [2] deals with T1, Aryl hydrocarbon receptor. Kind of data set: Induction of AhR degradation in human MCF7 cells assessed as AhR/lamin ratio level at 20 uM after 6 hrs by Western blot analysis (reference value: 100%). The settings on record: mcf7, 6 h.
In data set [3] the target is T2, Androgen receptor (Homo sapiens) (UniProt P10275).
T2 sequence (whole entry): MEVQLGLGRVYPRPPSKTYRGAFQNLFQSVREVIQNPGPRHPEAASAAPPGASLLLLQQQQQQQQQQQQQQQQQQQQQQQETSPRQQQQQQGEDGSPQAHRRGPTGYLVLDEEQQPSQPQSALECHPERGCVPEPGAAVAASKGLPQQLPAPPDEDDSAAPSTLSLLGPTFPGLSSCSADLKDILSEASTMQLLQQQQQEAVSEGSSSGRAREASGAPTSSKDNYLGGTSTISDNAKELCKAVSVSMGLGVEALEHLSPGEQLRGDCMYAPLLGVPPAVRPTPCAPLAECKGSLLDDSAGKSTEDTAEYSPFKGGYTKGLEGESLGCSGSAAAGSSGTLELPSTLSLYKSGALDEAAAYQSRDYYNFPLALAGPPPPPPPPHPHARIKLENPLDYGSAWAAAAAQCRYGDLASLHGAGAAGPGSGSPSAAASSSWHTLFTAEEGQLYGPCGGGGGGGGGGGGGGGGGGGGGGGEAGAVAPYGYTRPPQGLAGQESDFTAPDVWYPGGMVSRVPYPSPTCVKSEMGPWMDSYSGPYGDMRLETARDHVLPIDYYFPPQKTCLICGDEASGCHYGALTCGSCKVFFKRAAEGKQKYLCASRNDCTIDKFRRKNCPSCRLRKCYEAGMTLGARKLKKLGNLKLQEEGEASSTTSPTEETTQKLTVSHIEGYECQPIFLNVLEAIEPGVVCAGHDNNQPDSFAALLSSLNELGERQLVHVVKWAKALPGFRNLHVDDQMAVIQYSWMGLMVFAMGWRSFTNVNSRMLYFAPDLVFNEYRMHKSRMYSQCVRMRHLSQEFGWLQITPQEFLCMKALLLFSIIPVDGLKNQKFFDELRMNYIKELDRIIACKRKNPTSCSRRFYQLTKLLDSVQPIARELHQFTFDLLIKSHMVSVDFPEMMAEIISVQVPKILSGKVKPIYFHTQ
Put plainly: Induction of AR degradation in human MCF7 cells at 10 to 20 uM after 6 hrs by Western blot in presence of MG132.

For the next data set, the system named is MCF7. Put plainly: Cytotoxicity against human MCF7 cells at 20 uM after 6 hrs. The settings on record: mcf7, 6 h.
Data set [4] concerns the target T2, Androgen receptor (Homo sapiens). Put plainly: Induction of AR degradation in human MCF7 cells assessed as AR/lamin ratio level at 10 uM after 6 hrs by Western blot analysis (reference value: 100%).
For data set [5], the target named is Baculoviral IAP repeat-containing protein 2 (Homo sapiens) (UniProt Q13490). Kind of data set: Induction of cIAP1 degradation in human MCF7 cells at 10 to 20 uM after 6 hrs by Western blot analysis in presence of MG132.
Data set [6] deals with T1, Aryl hydrocarbon receptor. Kind of data set: Induction of AhR degradation in human MCF7 cells at 10 to 20 uM after 6 hrs by Western blot analysis. The settings on record: mcf7, 6 h.
For data set [7], the target named is T3, Estrogen receptor (Homo sapiens) (UniProt P03372).
T3 sequence (whole entry): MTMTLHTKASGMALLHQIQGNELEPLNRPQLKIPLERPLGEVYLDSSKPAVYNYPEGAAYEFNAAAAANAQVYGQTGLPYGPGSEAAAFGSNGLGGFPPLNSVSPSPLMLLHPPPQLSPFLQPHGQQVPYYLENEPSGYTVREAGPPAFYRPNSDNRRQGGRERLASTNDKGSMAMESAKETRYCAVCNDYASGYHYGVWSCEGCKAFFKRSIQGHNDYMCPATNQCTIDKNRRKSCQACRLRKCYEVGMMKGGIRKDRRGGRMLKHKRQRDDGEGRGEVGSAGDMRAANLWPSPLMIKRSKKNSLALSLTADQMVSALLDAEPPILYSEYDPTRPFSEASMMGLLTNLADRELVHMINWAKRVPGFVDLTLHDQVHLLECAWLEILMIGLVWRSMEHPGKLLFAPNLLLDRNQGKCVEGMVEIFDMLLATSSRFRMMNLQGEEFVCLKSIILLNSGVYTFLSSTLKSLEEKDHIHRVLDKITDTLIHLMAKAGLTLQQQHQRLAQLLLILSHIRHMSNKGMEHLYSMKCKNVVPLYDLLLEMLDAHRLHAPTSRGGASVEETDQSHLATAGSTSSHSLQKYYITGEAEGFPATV
Put plainly: Induction of ERalpha degradation in human MCF7 cells at 10 to 20 uM after 6 hrs by Western blot analysis.

The target in data set [8] is T3, Estrogen receptor (Homo sapiens). Put plainly: Induction of ERalpha degradation in human MCF7 cells assessed as ERalpha/lamin ratio level at 20 uM after 6 hrs by Western blot analysis (reference value: 100%).
Data set [9] shares this target. Put plainly: Induction of ERalpha degradation in human MCF7 cells at 10 to 20 uM after 6 hrs by Western blot analysis in presence of MG132.
For data set [10] the target is unchanged. Kind of data set: Induction of ERalpha degradation in human MCF7 cells assessed as ERalpha/lamin ratio level at 10 uM after 6 hrs by Western blot analysis (reference value: 100%).
For data set [11], the target named is T2, Androgen receptor (Homo sapiens). Put plainly: Induction of AR degradation in human MCF7 cells at 10 to 20 uM after 6 hrs by Western blot analysis.
For data set [12] the target is unchanged. Kind of data set: Induction of AR degradation in human MCF7 cells assessed as AR/lamin ratio level at 20 uM after 6 hrs by Western blot analysis (reference value: 100%).

Calls of active or inactive are those of the source. No cut-off for these calls is given here.

These results are taken from ChEMBL document CHEMBL3797167, “Development of a peptide-based inducer of nuclear receptors degradation” (Bioorg Med Chem Lett, 2016).

Chain of Baculoviral IAP repeat-containing protein 2 (Homo sapiens) (Q13490 whole entry): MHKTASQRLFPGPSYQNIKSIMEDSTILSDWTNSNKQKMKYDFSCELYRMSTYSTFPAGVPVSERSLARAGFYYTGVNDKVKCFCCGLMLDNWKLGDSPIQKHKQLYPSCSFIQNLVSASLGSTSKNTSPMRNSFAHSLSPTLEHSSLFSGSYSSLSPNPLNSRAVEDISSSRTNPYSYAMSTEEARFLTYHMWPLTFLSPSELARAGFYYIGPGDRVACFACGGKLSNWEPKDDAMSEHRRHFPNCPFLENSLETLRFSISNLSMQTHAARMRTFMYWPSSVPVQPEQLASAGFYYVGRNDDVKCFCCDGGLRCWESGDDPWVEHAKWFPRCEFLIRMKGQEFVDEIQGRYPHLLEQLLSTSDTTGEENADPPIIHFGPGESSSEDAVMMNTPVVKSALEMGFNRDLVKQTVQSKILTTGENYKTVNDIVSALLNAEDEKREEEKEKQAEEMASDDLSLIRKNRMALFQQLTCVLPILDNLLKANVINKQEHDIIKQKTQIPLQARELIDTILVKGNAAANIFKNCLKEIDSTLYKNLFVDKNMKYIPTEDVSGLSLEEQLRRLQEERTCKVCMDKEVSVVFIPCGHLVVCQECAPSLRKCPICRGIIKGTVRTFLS

`CC[C@@H](C)[C@@H]1NC(=O)[C@H](NC(=O)[C@H](N)CCCCNC(=O)CCNC(=O)CCNC(=O)CCNC(=O)CCNC(=O)CCNC(=O)[C@H](NC(=O)[C@H]2CCCN2C(=O)[C@@H](NC(=O)[C@@H](C)NC)C2CCCCC2)C(c2ccccc2)c2ccccc2)CSSC[C@@H](C(=O)N[C@@H](CCCNC(=N)N)C(=O)N[C@@H](CC(C)(C)C)C(=O)N[C@@H](CC(C)C)C(=O)N[C@@H](CCC(N)=O)C(=O)NCC(=O)NCC(=O)NCC(=O)N[C@@H](CCCNC(=N)N)C(=O)N[C@@H](CCCNC(=N)N)C(=O)N[C@@H](CCCNC(=N)N)C(=O)N[C@@H](CCCNC(=N)N)C(=O)N[C@@H](CCCNC(=N)N)C(=O)N[C@@H](CCCNC(=N)N)C(=O)N[C@H](CCCNC(=N)N)C(N)=O)NC(=O)[C@H](CC(C)C)NC1=O`: the Activity in data set [1] was 109%; in [2], 98%; with MCF7 it was “Non-toxic”; in [4] it was 77%; in data set [6] it was “Not Active”; in [8], 64%. In addition, the Activity turned out to be 82% in data set [10] and 54% in data set [12]. For the same compound, the outcome in [3], in data set [5] and in data set [9] was inactive. Also, the result in [7] and in data set [11] was Active.
